For three compounds, concentration results are on record in patent publication US4362743A, “Antibacterial monic acid esters” (Beecham Group Limited, priority 1980, dated 1982).

The nature of series [1]: Mean serum concentrations in neonatal piglets after intramuscular or oral administration. In kind it is in vivo. Particulars: pig, 50 mg/kg; for concentration at 40 min: 40° (printed). As to the method: Blood levels were assessed in neonatal piglets (2 to 4 animals per group and mean bodyweights about 2 kg). The dose was 50 mg/kg (dose solution=25 mg/ml in 25% ethanol). Doses were given by intramscular injection and orally by stomach tube. Piglets were beld at intervals up to 6 and at 24 hours, serum assayed microbiologically (B. subtilis ATCC 6633).

A short description of series [2]: in vivo. Particulars: mouse, 50 mg/kg.

The structures appear in SMILES notation.

On to `C/C(=C\C(=O)OCCCC(=NO)c1ccccc1)C[C@@H]1OC[C@H](C[C@@H]2O[C@H]2[C@@H](C)[C@H](C)O)[C@@H](O)[C@H]1O` [Example 1, 4-Hydroxyimino-4-phenylbutyl monate A], for which, in series [1] (im), the concentration at 40 min was 6300 ng/mL, the concentration at 10 min is 7000 ng/mL, the concentration at 20 min was determined as 6700 ng/mL and the concentration at 1 h came out at 6600 ng/mL. In series [1] (im), this compound had a concentration at 2 h of 5200 ng/mL. The same compound gave a concentration at 3 h in series [1] (im, 3h) of 2900 ng/mL. This compound came in with a concentration at 4 h in series [1] (im, 4h) of 1700 ng/mL. Further, the concentration at 6 h in series [1] (im, 6h) is below 900 ng/mL. Further, in series [1] (po), the concentration at 40 min was determined as 3300 ng/mL, the concentration at 10 min was determined as 3000 ng/mL, the concentration at 20 min turned out to be 3000 ng/mL and the concentration at 1 h was found to be 1200 ng/mL. The concentration at 2 h in series [1] (po) was below 1000 ng/mL. In series [2] (po), this compound returned a concentration at 5 min of 1000 ng/mL, a concentration at 10 min of 790 ng/mL, a concentration at 20 min of 230 ng/mL and a concentration at 0.5 h below 200 ng/mL. In series [2] (po), this compound displayed a concentration at 0.75 h below 200 ng/mL, a concentration at 1 h below 120 ng/mL and a concentration at 1.5 h below 200 ng/mL. Besides, in series [2] (sc), the concentration at 5 min was 4400 ng/mL, the concentration at 10 min was 6500 ng/mL, the concentration at 20 min was 3100 ng/mL and the concentration at 0.5 h came to 1600 ng/mL. Moreover, in series [2] (sc), the concentration at 0.75 h stood at 460 ng/mL, the concentration at 1 h turned out to be 280 ng/mL and the concentration at 1.5 h was below 200 ng/mL.
As to `C/C(=C\C(=O)OC1CCC(=NO)CC1)C[C@@H]1OC[C@H](C[C@@H]2O[C@H]2[C@@H](C)[C@H](C)O)[C@@H](O)[C@H]1O` (stereo partly shown) [Example 3, 4-Hydroxyiminocyclohexyl monate A], in series [2] (po), the concentration at 5 min turned out to be 3500 ng/mL, the concentration at 10 min stood at 3500 ng/mL, the concentration at 20 min stood at 2200 ng/mL and the concentration at 0.5 h stood at 1900 ng/mL. In series [2] (po), this compound yielded a concentration at 0.75 h of 1600 ng/mL, a concentration at 1 h of 800 ng/mL and a concentration at 1.5 h of 600 ng/mL. In series [2] (sc), this compound had a concentration at 5 min of 20600 ng/mL, a concentration at 10 min of 23000 ng/mL, a concentration at 20 min of 16600 ng/mL and a concentration at 0.5 h of 7900 ng/mL. In series [2] (sc), this compound gave a concentration at 0.75 h of 2900 ng/mL, a concentration at 1 h of 1500 ng/mL and a concentration at 1.5 h of 300 ng/mL.
`C/C(=C\C(=O)OCCCCCC=NN(C)C)C[C@@H]1OC[C@H](C[C@@H]2O[C@H]2[C@@H](C)[C@H](C)O)[C@@H](O)[C@H]1O` [Example 6, 6-Dimethylhydrazonohexyl monate A]: in series [2] (po), the concentration at 5 min was determined as 3400 ng/mL, the concentration at 10 min came to 3400 ng/mL, the concentration at 20 min stood at 680 ng/mL and the concentration at 0.5 h was below 600 ng/mL. In series [2] (po), this compound returned a concentration at 0.75 h below 600 ng/mL, a concentration at 1 h below 600 ng/mL and a concentration at 1.5 h below 600 ng/mL. Further, in series [2] (sc), the concentration at 5 min worked out at 12100 ng/mL, the concentration at 10 min was determined as 14800 ng/mL, the concentration at 20 min came out at 9700 ng/mL and the concentration at 0.5 h amounted to 6800 ng/mL. In series [2] (sc), this compound gave a concentration at 0.75 h of 3800 ng/mL, a concentration at 1 h of 2300 ng/mL and a concentration at 1.5 h below 600 ng/mL.
